Measurements taken from patent US7704995B2 (Exelixis, Inc., priority 2003, dated 2010).

Experiments:
Experiment in all cases: Kinase specificity assay (33P phosphoryl transfer, LCCA or AlphaScreen)
Type in all cases: biochemical
EphB4 = molecular target: T1, EphB4 (Homo sapiens, UniProt P54760); details: ATP close to KM; read-out: EphB4 inhibition, IC50
T1 sequence (P54760 16-987): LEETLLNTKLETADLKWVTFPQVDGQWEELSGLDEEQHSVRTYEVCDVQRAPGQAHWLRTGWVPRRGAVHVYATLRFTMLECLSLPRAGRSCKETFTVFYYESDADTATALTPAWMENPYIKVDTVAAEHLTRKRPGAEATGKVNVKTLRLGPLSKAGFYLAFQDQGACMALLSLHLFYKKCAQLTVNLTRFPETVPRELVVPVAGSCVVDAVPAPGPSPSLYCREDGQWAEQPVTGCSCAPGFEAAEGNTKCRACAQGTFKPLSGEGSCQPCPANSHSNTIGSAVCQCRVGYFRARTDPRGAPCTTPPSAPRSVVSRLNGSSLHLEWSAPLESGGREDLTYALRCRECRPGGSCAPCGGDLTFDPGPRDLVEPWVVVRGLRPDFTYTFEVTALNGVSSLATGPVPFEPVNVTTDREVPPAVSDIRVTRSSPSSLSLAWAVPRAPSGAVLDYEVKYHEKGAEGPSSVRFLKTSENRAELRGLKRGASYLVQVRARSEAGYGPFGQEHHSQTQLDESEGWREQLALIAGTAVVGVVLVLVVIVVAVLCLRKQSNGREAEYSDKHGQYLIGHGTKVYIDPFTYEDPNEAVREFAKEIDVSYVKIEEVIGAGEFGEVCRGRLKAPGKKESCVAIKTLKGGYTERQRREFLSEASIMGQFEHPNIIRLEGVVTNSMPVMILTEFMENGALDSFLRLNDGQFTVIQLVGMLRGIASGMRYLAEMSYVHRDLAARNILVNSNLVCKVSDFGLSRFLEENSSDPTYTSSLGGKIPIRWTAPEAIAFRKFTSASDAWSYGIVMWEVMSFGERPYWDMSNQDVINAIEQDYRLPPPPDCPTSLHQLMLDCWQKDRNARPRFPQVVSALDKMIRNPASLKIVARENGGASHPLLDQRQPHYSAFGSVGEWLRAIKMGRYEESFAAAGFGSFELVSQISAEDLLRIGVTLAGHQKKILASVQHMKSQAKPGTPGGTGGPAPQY

Flt4 = Flt4 (Homo sapiens, UniProt P35916); details: ATP close to KM; read-out: Flt4 inhibition, IC50
FGFR1 = FGFR1 (Homo sapiens, UniProt P11362); details: ATP close to KM; read-out: FGFR1 inhibition, IC50
KDR = KDR (Homo sapiens, UniProt P35968); details: ATP close to KM; read-out: KDR inhibition, IC50
Protocol: Kinase activity and compound inhibition are investigated using one or more of the three assay formats described below. The ATP concentrations for each assay are selected to be close to the Michaelis-Menten constant (KM) for each individual kinase. Dose-response experiments are performed at 10 different inhibitor concentrations in a 384-well plate format.
The coating solution is aspirated and the plates are washed once with 50 μL of assay buffer and padded dry. […] The plates are subsequently washed 6-12 times with PBST or TBS buffer.

FGFR1, sequence (P11362 22-822): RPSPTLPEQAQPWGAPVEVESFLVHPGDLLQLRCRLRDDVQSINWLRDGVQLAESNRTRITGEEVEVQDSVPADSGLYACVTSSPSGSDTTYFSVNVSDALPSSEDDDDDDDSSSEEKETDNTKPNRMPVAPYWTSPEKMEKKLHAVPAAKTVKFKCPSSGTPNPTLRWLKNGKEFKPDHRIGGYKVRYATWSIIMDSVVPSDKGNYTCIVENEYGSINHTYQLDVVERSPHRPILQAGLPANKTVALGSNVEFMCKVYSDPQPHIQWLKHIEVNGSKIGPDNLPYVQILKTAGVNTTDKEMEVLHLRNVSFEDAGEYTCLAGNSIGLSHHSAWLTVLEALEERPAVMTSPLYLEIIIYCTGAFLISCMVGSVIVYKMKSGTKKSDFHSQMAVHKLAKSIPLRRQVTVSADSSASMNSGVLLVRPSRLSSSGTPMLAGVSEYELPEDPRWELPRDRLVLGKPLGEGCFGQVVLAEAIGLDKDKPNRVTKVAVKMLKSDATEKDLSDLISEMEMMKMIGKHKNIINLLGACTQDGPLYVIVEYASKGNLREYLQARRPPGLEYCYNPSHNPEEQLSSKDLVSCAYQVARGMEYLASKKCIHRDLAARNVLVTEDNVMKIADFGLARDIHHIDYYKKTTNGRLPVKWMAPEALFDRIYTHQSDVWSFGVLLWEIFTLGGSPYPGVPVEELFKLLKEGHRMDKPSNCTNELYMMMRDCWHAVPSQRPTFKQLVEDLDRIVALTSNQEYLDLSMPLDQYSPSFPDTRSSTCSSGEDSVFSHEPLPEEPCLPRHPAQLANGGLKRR
KDR, sequence (P35968 20-1356): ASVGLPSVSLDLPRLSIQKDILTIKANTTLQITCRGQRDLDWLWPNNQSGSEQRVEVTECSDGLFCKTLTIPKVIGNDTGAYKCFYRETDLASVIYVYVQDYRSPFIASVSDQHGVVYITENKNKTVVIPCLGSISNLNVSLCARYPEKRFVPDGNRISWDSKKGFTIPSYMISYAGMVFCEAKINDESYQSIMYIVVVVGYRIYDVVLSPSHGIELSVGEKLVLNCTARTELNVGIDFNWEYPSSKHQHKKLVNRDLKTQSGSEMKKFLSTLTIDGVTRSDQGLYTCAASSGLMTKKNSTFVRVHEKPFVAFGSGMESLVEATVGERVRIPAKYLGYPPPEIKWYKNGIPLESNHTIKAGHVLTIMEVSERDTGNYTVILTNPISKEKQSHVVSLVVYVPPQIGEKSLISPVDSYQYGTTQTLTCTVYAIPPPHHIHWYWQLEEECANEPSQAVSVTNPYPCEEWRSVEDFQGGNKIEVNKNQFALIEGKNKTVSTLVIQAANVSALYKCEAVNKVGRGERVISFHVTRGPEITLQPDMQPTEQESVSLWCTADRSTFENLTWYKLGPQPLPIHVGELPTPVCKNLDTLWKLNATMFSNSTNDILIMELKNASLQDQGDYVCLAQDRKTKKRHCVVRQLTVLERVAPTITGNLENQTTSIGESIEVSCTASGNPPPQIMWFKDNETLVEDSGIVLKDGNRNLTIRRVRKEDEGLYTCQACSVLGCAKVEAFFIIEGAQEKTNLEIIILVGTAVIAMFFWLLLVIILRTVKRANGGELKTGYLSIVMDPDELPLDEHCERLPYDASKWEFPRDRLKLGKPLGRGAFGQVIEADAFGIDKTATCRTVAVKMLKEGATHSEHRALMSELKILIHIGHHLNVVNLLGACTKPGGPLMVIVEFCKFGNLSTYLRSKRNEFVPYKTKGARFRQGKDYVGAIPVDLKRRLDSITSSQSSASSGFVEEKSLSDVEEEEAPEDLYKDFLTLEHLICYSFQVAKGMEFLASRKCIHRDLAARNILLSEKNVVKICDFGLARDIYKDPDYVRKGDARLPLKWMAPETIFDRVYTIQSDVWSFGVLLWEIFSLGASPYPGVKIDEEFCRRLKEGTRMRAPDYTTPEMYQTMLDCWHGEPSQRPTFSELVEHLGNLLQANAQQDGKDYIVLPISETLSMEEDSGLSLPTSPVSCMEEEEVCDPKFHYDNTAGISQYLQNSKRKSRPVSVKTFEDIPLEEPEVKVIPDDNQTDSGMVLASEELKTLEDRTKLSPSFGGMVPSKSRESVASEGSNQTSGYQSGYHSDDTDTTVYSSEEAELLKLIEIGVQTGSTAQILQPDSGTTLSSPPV
Flt4, sequence (P35916 25-1363): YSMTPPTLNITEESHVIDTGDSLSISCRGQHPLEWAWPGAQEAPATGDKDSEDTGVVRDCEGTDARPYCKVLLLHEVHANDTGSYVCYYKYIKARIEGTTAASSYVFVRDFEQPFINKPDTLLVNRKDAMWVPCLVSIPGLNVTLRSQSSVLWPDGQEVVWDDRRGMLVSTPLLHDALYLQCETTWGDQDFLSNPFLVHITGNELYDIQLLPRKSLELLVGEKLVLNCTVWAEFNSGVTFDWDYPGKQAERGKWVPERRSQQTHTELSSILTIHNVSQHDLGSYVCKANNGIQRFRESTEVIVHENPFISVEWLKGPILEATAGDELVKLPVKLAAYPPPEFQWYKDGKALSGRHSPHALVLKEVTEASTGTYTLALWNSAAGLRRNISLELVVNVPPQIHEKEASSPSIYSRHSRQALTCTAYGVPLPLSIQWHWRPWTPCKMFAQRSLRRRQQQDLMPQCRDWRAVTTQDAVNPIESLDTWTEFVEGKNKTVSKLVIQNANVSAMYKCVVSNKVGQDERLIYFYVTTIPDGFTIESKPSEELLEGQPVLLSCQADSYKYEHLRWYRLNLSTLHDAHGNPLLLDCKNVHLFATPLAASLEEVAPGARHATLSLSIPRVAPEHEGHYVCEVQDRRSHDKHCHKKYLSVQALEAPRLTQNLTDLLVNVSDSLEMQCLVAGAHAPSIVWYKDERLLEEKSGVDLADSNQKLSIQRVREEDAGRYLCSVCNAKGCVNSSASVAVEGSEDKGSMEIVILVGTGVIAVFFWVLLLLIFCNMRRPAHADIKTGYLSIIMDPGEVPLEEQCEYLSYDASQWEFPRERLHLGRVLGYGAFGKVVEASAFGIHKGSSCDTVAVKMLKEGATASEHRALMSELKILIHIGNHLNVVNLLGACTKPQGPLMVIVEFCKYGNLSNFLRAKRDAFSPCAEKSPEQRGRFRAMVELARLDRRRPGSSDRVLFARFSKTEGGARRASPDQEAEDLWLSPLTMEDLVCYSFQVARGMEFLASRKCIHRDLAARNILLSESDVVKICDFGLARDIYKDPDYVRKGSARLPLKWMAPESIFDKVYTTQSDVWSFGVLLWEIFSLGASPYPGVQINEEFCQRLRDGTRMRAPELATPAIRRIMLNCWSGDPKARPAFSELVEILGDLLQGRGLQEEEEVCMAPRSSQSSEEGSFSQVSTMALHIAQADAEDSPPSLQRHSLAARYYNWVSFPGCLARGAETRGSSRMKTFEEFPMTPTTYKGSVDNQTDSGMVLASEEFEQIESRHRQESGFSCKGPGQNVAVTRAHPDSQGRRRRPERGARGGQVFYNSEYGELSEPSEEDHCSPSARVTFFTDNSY

NC(=O)c1nc(-c2cccc3ccccc23)cnc1N [Example 2, 3-Amino-6-naphthalen-1-ylpyrazine-2-carboxamide]
IC50 (EphB4): ≥ 10000 nM
IC50 (Flt4): < 50 nM
IC50 (FGFR1): 1000 to 10000 nM
IC50 (KDR): 50 to 1000 nM
